Measured values taken from article PMC3901262 (Investigational new drugs, 2013).
One block for each compound: values may come before it.

Assays:
[1] = Plasma pharmacokinetics of vorinostat and metabolites; assay type: in vivo, human; settings: for AUC (0-infinity) / Cmax / T1/2 / Tmax / AUC / Cl/F: plasma; for AUC: Mean AUC
refractory NSCLC = settings: single agent; ref [36]; cited from earlier work
[2] = system: patients with advanced solid tumors; assay: Phase I dose escalation: toxicity, DLT and MTD; assay type: in vivo, human
[3] = C1D1, vorinostat 400 mg oral alone (single dose)
[4] = C1D2, vorinostat 400 mg oral + bortezomib
[5] = C1D12, vorinostat 400 mg oral steady state, with bortezomib

- AUC (0-infinity) [1, 3]: 4843 ± 3034 ng·h/mL
- Cmax [1, 3]: 1153 ± 922 ng/mL
- T1/2 [1, 3]: 1.9 ± 1.4 h
- Tmax [1, 3]: 1.9 ± 1.0 h
- AUC (0-infinity) [1, 4]: 5283 ± 2915 ng·h/mL
- Cmax [1, 4]: 1225 ± 496 ng/mL
- T1/2 [1, 4]: 1.6 ± 0.5 h
- Tmax [1, 4]: 3.2 ± 1.8 h
- AUC (0-infinity) [1, 5]: 4169 ± 1548 ng·h/mL
- Cmax [1, 5]: 849 ± 479 ng/mL
- T1/2 [1, 5]: 2.0 ± 0.8 h
- Tmax [1, 5]: 2.0 ± 1.0 h
SMILES: O=C(CCCCCCC(=O)Nc1ccccc1)NO[C@@H]1O[C@H](C(=O)O)[C@@H](O)[C@H](O)[C@H]1O [Vorinostat glucuronide, vorinostat glucuronide]

- mean baseline plasma concentration ([1]; Day 2, before vorinostat dose): 130 ± 68 ng/mL
- Cmax [1, 3]: 815 ± 282 ng/mL
- Tmax [1, 3]: 2.8 ± 1.4 h
SMILES: O=C(O)CCC(=O)Nc1ccccc1 [Vorinostat acid, 4-anilino-4-oxobutanoic acid]

SMILES: O=C(CCCCCCC(=O)Nc1ccccc1)NO [vorinostat, suberoylanilide hydroxamic acid]
- objective antitumor activity (refractory NSCLC): no objective antitumor activity
- AUC and Cmax in individuals experiencing a DLT compared with no DLT ([1]; all days of treatment, p < 0.05): significantly higher
- AUC and Cmax on day 12 compared with day 1 ([1]; cycle 1, steady state vs single dose, p < 0.05): significantly higher
- day 1 compared with day 2 plasma concentrations (influence of bortezomib) ([1]; cycle 1, vorinostat alone vs vorinostat + bortezomib): no difference
- Cmax ([1]; human, oral, 400 mg, Cmax, C1D1, patients with DLT (3)): 551 ± 174 ng/mL
- AUC ([1]; human, oral, 400 mg, C1D1, patients with DLT (3)): 1450 ± 277 ng·h/mL
- AUC ([1]; human, oral, 400 mg, C1D1, patients with No DLT (16)): 999 ± 438 ng·h/mL
- Cmax ([1]; human, oral, Cmax, C1D2, patients with DLT (3)): 675 ± 363 ng/mL
- Cmax ([1]; human, oral, Cmax, C1D12, patient with DLT (1)): 905 ng/mL
- Cmax ([1]; human, oral, Cmax, C1D12, patients with No DLT (13)): 448 ± 314 ng/mL
- AUC ([1]; human, oral, C1D2, patients with DLT (3)): 1790 ± 436 ng·h/mL
- AUC ([1]; human, oral, C1D2, patients with No DLT (16)): 983 ± 418 ng·h/mL
- AUC ([1]; human, oral, C1D12, patient with DLT (1)): 2230 ng·h/mL
- AUC ([1]; human, oral, C1D12, patients with No DLT (13)): 1410 ± 962 ng·h/mL
- Cl/F [1, 3]: 6.4 ± 3.2 L/min
- Cl/F [1, 4]: 11 ± 4.1 L/min
- Cl/F [1, 5]: 13 ± 3.3 L/min
- MTD, vorinostat ([2]; orally daily days 1-14 of 21-day cycle, with bortezomib): 400 mg

SMILES: CC(C)C[C@H](NC(=O)[C@H](Cc1ccccc1)NC(=O)c1cnccn1)B(O)O [bortezomib]
- MTD, bortezomib ([2]; IV days 1, 4, 8, 11 of 21-day cycle, with vorinostat 400 mg): 1.3 mg/m^2
